Data: ChEMBL document CHEMBL4507327 (2021)
One block for each compound: values may come before it.

How the values were obtained:
[1] = target: Alpha-1D adrenergic receptor (Homo sapiens) (UniProt P25100); assay: Inhibition of Adrenergic alpha1D at 10 µM in the Eurofins-Panlabs radioligand binding assay (Eurofins_assay_203400); conditions: Compound concentration 10.0 uM
[2] = target: Serine/threonine-protein kinase LATS1 (Homo sapiens, UniProt O95835); assay: LATS1(LAT1LGRJ) Takeda global kinase panel
[3] = target: Mitogen-activated protein kinase kinase kinase kinase 4 (Homo sapiens, UniProt O95819); assay: HGK [ZC1(M4K4CGP1)] Takeda global kinase panel
[4] = target: Mitogen-activated protein kinase 4 (Homo sapiens, UniProt P31152); assay: ERK4(MAP4LGY1) Takeda global kinase panel
[5] = target: Serine/threonine-protein kinase SIK1 (Homo sapiens, UniProt P57059); assay: SIK(SIK1LHY1) Takeda global kinase panel
[6] = target: 5-hydroxytryptamine receptor 2A (Homo sapiens) (UniProt P28223); conditions: Compound concentration 10.0 uM
[7] = target: T1, 5-hydroxytryptamine receptor 3A (Homo sapiens) (UniProt P46098); conditions: Compound concentration 10.0 uM
T1 sequence (whole entry): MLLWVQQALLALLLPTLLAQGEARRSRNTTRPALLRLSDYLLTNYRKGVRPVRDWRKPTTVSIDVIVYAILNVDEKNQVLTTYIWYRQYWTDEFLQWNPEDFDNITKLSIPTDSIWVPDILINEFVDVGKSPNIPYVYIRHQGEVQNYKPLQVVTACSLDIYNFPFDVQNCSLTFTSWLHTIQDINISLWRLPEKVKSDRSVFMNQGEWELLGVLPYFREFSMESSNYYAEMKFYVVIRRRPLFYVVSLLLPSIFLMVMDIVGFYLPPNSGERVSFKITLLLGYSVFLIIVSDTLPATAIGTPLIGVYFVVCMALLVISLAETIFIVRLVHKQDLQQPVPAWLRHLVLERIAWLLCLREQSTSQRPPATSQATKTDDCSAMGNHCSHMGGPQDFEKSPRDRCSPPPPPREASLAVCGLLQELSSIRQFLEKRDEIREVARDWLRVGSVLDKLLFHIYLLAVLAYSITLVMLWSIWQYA

[8] = target: D(1A) dopamine receptor (Homo sapiens) (UniProt P21728); conditions: Compound concentration 10.0 uM
[9] = target: Mu-type opioid receptor (Homo sapiens) (UniProt P35372); conditions: Compound concentration 10.0 uM
[10] = target: T2, GABA-A receptor; anion channel (Rattus norvegicus) (UniProt O09028+P15431+P18506+P18508+P19969+P20236+P23574+P23576+P28471+P28473+P30191+P62813+P63079+P63138+Q91ZM7+Q9ES14); conditions: Compound concentration 10.0 uM
[11] = target: Histamine H4 receptor (Homo sapiens) (UniProt Q9H3N8); conditions: Compound concentration 10.0 uM
[12] = target: Alpha-2B adrenergic receptor (Homo sapiens) (UniProt P18089); conditions: Compound concentration 10.0 uM
[13] = target: Muscarinic acetylcholine receptor M3 (Homo sapiens) (UniProt P20309); conditions: Compound concentration 10.0 uM
[14] = target: T2, GABA-A receptor; anion channel (Rattus norvegicus); conditions: Compound concentration 10.0 uM; remark: listed apart in the source
[15] = target: Sigma intracellular receptor 2 (Homo sapiens) (UniProt Q5BJF2); conditions: Compound concentration 10.0 uM
[16] = target: Inhibitor of nuclear factor kappa-B kinase subunit beta (Homo sapiens, UniProt O14920); assay: IKKbeta(IKBBLHY1) Takeda global kinase panel
[17] = target: Calcium/calmodulin-dependent protein kinase type II subunit gamma (Homo sapiens, UniProt Q13555); assay: CaMK2gamma(CA2GLGT5) Takeda global kinase panel
[18] = target: Calcium/calmodulin-dependent protein kinase kinase 1 (Homo sapiens, UniProt Q8N5S9); assay: CAMKK1(CAK1LGT5) Takeda global kinase panel
[19] = target: Calcium/calmodulin-dependent protein kinase kinase 2 (Homo sapiens, UniProt Q96RR4); assay: CAMKK2(CAK2LGT5) Takeda global kinase panel
[20] = target: Fibroblast growth factor receptor 2 (Homo sapiens, UniProt P21802); assay: FGFR2(FGF2LGF1) Takeda global kinase panel
[21] = target: Tyrosine-protein kinase Fyn (Homo sapiens, UniProt P06241); assay: Fyn(FYN1LGF5) Takeda global kinase panel
[22] = target: Glycogen synthase kinase-3 alpha (Homo sapiens, UniProt P49840); assay: GSK3alpha(GS3ALGK1) Takeda global kinase panel
[23] = target: Homeodomain-interacting protein kinase 3 (Homo sapiens, UniProt Q9H422); assay: HIPK3(HIP3LGF1) Takeda global kinase panel
[24] = target: Interleukin-1 receptor-associated kinase 1 (Homo sapiens, UniProt P51617); assay: IRAK1(IRK1LGF1) Takeda global kinase panel
[25] = target: Tyrosine-protein kinase JAK2 (Homo sapiens, UniProt O60674); assay: JAK2(JAK2LGF1) Takeda global kinase panel
[26] = target: Dual specificity mitogen-activated protein kinase kinase 7 (Homo sapiens, UniProt O14733); assay: MAP2K7(M2K7CGRI) Takeda global kinase panel
[27] = target: Mitogen-activated protein kinase kinase kinase 2 (Homo sapiens, UniProt Q9Y2U5); assay: MEKK2 [MAP3K2(M3K2LGF1)] Takeda global kinase panel
[28] = target: Mitogen-activated protein kinase 7 (Homo sapiens, UniProt Q13164); assay: ERK5(MAP7LGF1) Takeda global kinase panel
[29] = target: Serine/threonine-protein kinase Sgk1 (Homo sapiens, UniProt O00141); assay: SGK1(SGK1LGF1) Takeda global kinase panel
[30] = target: Proto-oncogene tyrosine-protein kinase Src (Homo sapiens, UniProt P12931); assay: Src(SRC1LGF5) Takeda global kinase panel
[31] = target: Serine/threonine-protein kinase 16 (Homo sapiens, UniProt O75716); assay: MPSK1(ST16LGF1) Takeda global kinase panel
Tribbles homolog 1 = Tribbles homolog 1 (Homo sapiens, UniProt Q96RU8); assay: Trb1(TRI1PARP) Takeda global kinase panel
[32] = target: Tyrosine-protein kinase receptor TYRO3 (Homo sapiens, UniProt Q06418); assay: Tyro3 [Sky(TYR3LGY1)] Takeda global kinase panel
[33] = target: Bromodomain-containing protein 2 (Homo sapiens, UniProt P25440); assay: BRD2(BRD2LHRC) Takeda global kinase panel
[34] = target: Glutamate NMDA receptor (Rattus norvegicus) (UniProt P35439+Q00959+Q00960+Q00961+Q62645+Q8VHN2+Q9R1M7); conditions: Compound concentration 10.0 uM
[35] = target: Histamine H2 receptor (Homo sapiens) (UniProt P25021); conditions: Compound concentration 10.0 uM

5-hydroxytryptamine receptor 2A (Homo sapiens), sequence (P28223 whole entry): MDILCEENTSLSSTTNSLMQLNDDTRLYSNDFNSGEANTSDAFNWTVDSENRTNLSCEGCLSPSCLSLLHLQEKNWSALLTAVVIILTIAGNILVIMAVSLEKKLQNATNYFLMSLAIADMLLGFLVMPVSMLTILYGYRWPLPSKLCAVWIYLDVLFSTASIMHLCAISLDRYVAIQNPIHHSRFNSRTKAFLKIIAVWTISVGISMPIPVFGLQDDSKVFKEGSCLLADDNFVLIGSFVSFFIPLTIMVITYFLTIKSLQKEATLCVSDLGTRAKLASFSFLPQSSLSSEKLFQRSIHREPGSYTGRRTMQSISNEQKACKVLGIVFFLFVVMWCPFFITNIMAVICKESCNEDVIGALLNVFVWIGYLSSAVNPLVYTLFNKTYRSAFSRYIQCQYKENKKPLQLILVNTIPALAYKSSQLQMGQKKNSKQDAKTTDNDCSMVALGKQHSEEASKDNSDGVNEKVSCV
Tribbles homolog 1, sequence (Q96RU8 whole entry): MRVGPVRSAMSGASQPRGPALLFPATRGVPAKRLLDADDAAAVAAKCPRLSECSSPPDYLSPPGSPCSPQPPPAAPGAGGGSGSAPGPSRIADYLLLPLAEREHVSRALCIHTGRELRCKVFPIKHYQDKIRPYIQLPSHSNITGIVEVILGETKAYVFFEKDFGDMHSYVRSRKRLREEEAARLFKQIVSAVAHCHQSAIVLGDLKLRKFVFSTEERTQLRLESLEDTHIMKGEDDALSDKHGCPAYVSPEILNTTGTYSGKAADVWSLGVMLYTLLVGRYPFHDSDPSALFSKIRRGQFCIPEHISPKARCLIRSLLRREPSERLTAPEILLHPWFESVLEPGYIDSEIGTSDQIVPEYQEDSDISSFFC
Sigma intracellular receptor 2 (Homo sapiens), sequence (Q5BJF2 whole entry): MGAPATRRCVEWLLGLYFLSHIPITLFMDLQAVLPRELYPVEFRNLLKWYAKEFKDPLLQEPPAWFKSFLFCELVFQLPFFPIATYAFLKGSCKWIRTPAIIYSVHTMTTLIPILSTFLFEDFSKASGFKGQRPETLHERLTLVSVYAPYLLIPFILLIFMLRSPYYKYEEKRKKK
Inhibitor of nuclear factor kappa-B kinase subunit beta, sequence (O14920 whole entry): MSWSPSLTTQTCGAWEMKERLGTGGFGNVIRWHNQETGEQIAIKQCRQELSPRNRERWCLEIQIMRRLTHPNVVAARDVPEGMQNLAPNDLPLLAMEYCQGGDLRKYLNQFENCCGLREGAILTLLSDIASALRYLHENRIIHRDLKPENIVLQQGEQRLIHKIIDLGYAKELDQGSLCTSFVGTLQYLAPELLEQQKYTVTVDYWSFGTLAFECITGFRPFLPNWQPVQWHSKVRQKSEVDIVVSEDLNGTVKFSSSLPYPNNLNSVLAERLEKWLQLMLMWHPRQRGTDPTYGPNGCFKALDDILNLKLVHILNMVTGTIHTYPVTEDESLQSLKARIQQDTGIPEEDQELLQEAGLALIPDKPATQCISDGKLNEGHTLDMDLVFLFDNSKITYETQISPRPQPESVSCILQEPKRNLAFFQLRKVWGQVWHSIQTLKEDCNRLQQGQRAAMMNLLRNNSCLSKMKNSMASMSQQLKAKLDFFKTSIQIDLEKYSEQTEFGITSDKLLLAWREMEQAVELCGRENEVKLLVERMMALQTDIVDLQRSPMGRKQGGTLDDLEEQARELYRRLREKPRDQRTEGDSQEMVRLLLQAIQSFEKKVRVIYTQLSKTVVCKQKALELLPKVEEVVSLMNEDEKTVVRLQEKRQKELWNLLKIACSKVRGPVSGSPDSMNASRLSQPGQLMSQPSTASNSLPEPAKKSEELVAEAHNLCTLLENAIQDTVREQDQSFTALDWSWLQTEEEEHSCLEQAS
Mitogen-activated protein kinase kinase kinase kinase 4, sequence (O95819 whole entry): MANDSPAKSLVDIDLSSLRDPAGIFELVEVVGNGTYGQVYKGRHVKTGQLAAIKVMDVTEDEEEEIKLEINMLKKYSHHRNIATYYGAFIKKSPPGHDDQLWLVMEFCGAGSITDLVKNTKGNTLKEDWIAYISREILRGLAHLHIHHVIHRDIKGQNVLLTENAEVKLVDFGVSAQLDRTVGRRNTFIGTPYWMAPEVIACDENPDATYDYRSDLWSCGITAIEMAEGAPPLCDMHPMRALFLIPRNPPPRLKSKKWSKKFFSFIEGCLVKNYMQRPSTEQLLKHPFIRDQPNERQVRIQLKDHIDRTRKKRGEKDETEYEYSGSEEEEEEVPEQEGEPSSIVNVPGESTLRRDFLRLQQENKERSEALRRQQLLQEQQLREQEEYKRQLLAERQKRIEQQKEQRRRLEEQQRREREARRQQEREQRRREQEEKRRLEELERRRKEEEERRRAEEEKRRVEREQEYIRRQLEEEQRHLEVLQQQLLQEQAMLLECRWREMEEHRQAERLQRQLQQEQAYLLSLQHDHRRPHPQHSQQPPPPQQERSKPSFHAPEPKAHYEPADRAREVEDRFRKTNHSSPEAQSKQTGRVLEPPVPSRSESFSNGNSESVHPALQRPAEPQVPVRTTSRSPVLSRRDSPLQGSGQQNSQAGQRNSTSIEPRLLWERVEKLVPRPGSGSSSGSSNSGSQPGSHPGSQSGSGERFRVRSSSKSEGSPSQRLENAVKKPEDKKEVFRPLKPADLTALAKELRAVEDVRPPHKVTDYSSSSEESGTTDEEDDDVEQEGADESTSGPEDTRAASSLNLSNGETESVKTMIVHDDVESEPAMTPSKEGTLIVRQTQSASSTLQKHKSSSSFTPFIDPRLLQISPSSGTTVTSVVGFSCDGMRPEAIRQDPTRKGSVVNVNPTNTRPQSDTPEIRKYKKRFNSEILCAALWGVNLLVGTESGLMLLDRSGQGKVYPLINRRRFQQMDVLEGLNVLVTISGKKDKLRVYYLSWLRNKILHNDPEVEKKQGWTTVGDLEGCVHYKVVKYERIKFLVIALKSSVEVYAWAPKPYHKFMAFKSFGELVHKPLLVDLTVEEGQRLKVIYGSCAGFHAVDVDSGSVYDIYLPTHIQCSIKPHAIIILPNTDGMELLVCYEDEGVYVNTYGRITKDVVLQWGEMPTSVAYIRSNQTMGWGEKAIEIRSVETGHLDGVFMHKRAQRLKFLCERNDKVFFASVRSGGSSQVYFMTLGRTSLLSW
Mu-type opioid receptor (Homo sapiens), sequence (P35372 whole entry): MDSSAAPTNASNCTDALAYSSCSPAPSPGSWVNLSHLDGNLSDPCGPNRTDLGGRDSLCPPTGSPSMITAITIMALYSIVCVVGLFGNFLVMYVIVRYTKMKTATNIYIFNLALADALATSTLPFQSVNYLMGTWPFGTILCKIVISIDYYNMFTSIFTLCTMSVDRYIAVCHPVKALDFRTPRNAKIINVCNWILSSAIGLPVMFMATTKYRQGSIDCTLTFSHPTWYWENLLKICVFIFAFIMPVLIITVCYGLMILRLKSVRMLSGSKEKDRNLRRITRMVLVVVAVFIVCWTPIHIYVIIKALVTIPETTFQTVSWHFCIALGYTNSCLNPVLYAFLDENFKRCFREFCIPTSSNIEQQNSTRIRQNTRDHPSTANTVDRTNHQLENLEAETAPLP
Calcium/calmodulin-dependent protein kinase kinase 1, sequence (Q8N5S9 whole entry): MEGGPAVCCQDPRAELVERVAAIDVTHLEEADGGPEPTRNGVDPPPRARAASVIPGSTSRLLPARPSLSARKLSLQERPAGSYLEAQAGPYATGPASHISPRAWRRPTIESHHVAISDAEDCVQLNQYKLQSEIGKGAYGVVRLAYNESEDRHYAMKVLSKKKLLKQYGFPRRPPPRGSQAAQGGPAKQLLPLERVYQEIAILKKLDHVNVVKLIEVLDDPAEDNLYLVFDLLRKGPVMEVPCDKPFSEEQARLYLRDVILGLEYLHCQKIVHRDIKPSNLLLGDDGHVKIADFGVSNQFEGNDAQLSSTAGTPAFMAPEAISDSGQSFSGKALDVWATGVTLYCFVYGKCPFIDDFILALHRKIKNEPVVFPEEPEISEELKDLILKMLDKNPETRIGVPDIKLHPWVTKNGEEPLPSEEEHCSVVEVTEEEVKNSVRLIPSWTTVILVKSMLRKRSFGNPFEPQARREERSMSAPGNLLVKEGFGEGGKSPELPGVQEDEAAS
Calcium/calmodulin-dependent protein kinase kinase 2, sequence (Q96RR4 whole entry): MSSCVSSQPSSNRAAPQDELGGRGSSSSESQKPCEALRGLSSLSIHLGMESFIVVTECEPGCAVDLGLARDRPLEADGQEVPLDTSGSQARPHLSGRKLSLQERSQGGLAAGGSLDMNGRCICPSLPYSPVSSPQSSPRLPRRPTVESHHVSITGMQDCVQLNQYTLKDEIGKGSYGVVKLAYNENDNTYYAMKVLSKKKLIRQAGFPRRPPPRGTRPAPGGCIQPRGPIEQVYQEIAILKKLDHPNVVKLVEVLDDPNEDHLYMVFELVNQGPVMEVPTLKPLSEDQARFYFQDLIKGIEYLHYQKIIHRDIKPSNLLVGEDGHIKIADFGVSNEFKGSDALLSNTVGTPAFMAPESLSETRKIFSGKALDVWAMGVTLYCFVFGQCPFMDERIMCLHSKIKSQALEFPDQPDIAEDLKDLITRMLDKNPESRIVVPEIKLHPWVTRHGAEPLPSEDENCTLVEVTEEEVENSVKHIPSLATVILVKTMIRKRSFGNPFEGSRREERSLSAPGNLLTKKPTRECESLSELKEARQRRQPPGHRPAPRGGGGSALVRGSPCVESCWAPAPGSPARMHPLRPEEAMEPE
Serine/threonine-protein kinase Sgk1, sequence (O00141 whole entry): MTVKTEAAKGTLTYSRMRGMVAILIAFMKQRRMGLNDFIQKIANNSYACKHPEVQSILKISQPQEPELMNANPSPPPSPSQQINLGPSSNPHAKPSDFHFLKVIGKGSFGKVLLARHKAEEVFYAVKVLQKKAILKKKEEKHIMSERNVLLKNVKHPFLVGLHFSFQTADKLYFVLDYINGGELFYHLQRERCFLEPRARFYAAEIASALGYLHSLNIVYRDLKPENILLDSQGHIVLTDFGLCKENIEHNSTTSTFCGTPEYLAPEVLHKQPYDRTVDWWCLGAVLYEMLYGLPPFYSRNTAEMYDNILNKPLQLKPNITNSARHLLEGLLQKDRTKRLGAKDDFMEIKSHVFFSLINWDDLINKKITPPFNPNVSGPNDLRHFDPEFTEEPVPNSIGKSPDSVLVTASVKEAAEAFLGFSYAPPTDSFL

Compound: CN1C(=O)[C@@H](N2CCc3cn(Cc4ccccc4)nc3C2=O)COc2ccccc21 [TP-030-1]
inhibition [1]: -2%
IC50 [2]: 1000 nM
IC50 [3]: 1000 nM
IC50 [4]: 1000 nM
IC50 [5]: 1000 nM
inhibition [6]: 3.8%
inhibition [7]: 40.8%
inhibition [8]: 18.8%
inhibition [9]: 10.6%
inhibition [10]: 10.5%
inhibition [11]: 6.09%
inhibition [12]: 43.3%
inhibition [13]: 0.09%
inhibition [14]: -3.98%
inhibition [15]: 27%

IC50 [16]: 1000 nM
IC50 [17]: 1000 nM
IC50 [18]: 1000 nM
IC50 [19]: 1000 nM
IC50 [20]: 1000 nM
IC50 [21]: 1000 nM
IC50 [22]: 1000 nM
IC50 [23]: 1000 nM
IC50 [24]: 1000 nM
IC50 [25]: 1000 nM
IC50 [26]: 1000 nM
IC50 [27]: 1000 nM
IC50 [28]: 1000 nM
IC50 [29]: 1000 nM
IC50 [30]: 1000 nM
IC50 [31]: 1000 nM
IC50 (Tribbles homolog 1): 1000 nM
IC50 [32]: 1000 nM
IC50 [33]: 1000 nM
inhibition [34]: 4%
inhibition [35]: -10%
Compound: CN1C(=O)[C@@H](N2CCc3cn(CC4CCS(=O)(=O)CC4)nc3C2=O)COc2ccccc21 [TP-030n]
